For data set [1], the system named is Human alphaherpesvirus 2. Kind of data set: Antiviral activity against Herpes simplex virus 2 infected in african green monkey Vero cells assessed as maximal nontoxic dose that showed the highest viral reduction factor after 48 hrs by end-point titration technique. It is filed as functional.
Data set [2] relates to Human alphaherpesvirus 2. Kind of data set: Antiviral activity against Herpes simplex virus 2 infected in african green monkey Vero cells assessed as ratio of the viral titers in absence to presence of drug after 48 hrs by end-point titration technique. The format is functional.
The subject of the next data set is Vero. As to the kind of experiment: Cytotoxicity against african green monkey Vero cells by end-point titration technique. The format is cell-based. To be noted: chlorocebus sabaeus.
A short description of data set [3]: Cytotoxicity against african green monkey Vero cells by MTT assay. It is filed as cell-based. The conditions noted are these: chlorocebus sabaeus.
Data set [4] relates to Human alphaherpesvirus 2. Kind of data set: Antiviral activity against Herpes simplex virus 2 infected in african green monkey Vero cells assessed inhibition of virus-induced effect after 48 hrs by MTT assay. The format is functional, organism-based. The conditions noted are these: Human alphaherpesvirus 2, Vero. (In general: Formazan colour is commonly taken as a measure of viable cells.)

A short description of data set [5]: Therapeutic index, ratio of CC50 for african green monkey Vero cells to IC50 for Herpes simplex virus 2 by MTT assay. The format is cell-based. The conditions noted are these: read-out: Ratio CC50/IC50.
A further data set relates to CHO. Kind of data set: Cytotoxicity against CHO cells after 48 hrs. It is filed as cell-based, Cricetulus griseus. The conditions noted are these: chinese hamster.
Data set [6] is described as follows: Cytotoxicity against bovine Bon-Fib cells after 48 hrs. It is filed as cell-based, Bos taurus. To be noted: cattle.
For another data set, the system named is HEp-2. As to the kind of experiment: Cytotoxicity against human Hep2 cells after 48 hrs. It is filed as functional.
The subject of another data set is HeLa. Kind of data set: Cytotoxicity against human HeLa cells after 48 hrs. The format is functional.

Consider 15 compounds from ChEMBL document CHEMBL1156361, “Structure-activity relationship of in vitro antiviral and cytotoxic activity of semisynthetic analogues of scopadulane diterpenes” (J Nat Prod, 2001).

SMILES strings stand for the structures. In brackets after ≈: the same amount, converted by molar mass. Activity calls are given as the source filed them. The calls are words filed in the database; no cut-off is given here.

Regarding `CC1(C)CCCC2=C1CC[C@@]13CC[C@](C)(C[C@@]21C)C(=O)C3`, in the data set with Human alphaherpesvirus 2 [1], the result was inactive. The Ratio entry in the data set with Human alphaherpesvirus 2 [2] is “inactive”. The CC100 in the data set on Vero stood at 35 µg/mL.

As for `CC1(C)CCC[C@@]2(C)[C@H]1CC[C@H]1C[C@@H](O)[C@]3(C)CC[C@]12C3`, the midpoint of cytotoxicity in data set [3], the CC50, lay at 19.5 µg/mL (≈ 67.1 µM). In addition, in the data set with Human alphaherpesvirus 2 [1], the Activity came out at 7.5 µg/mL. Besides, in the data set on Human alphaherpesvirus 2 [4], the IC50 (as a rule, the concentration that inhibits the measured activity by half) was determined as 16.5 µg/mL (≈ 56.8 µM). In the data set on Human alphaherpesvirus 2 [2], the Ratio was found to be 100. The selectivity ratio in [5] was found to be 1.25. The compound further registered a CC100 in the data set on Vero of 32 µg/mL.

For the compound `Nc1nc2c(ncn2COCCO)c(=O)[nH]1` [ACYCLOVIR], the Activity in the data set with Human alphaherpesvirus 2 [1] stood at 6 µg/mL. This compound also gave an IC50 in the data set with Human alphaherpesvirus 2 [4] of 4.21 µg/mL (≈ 18.7 µM). In addition, the Ratio with Human alphaherpesvirus 2 [2] amounted to 100000. In the data set on Vero, the CC100 is above 600 µg/mL.

For the compound `COC(=O)CC(=O)O[C@@H]1C[C@@H]2CC[C@H]3C(C)(C)CCC[C@]3(C)[C@]23CC[C@]1(C)C3` [METHYL THYRSIFLORIN A], the Activity in the data set on Human alphaherpesvirus 2 [1] is 15 µg/mL. Also, the values for the CC100 (in the data set with CHO; in data set [6]; in the data set on Vero) were 28 µg/mL, 28 µg/mL and 30 µg/mL, respectively. Further, in the data set on Human alphaherpesvirus 2 [2], the Ratio came to 5.

With `CC1(C)CCC[C@@]2(C)[C@H]1C[C@@H](O)C1=CC(=O)[C@]3(C)CC[C@]12C3`, in the data set on Human alphaherpesvirus 2 [1], the Activity turned out to be 14 µg/mL. The CC100 amounted to 20 µg/mL in the data set on CHO, 10 µg/mL in data set [6] and 28 µg/mL in the data set with Vero. Moreover, the Ratio in the data set with Human alphaherpesvirus 2 [2] was determined as 10.

As for `CC1(C)CCC[C@@]2(C)[C@H]1CCC1=CC(=O)[C@@]3(C)C[C@@]12CC3=O`, the Activity in the data set with Human alphaherpesvirus 2 [1] was found to be 30 µg/mL. In addition, the Ratio in the data set with Human alphaherpesvirus 2 [2] is on record as 10. Moreover, in the data set with Vero, the CC100 stood at 60 µg/mL.

As for `CC1(C)CCC[C@@]2(C)[C@H]1CC[C@@]13CC(=O)[C@]4(C)CC1[C@]32C4`, in the data set on Human alphaherpesvirus 2 [1], the Activity came to 20 µg/mL. For the same compound, in the data set with Human alphaherpesvirus 2 [2], the Ratio is recorded as 10. In addition, in the data set on Vero, the CC100 was 40 µg/mL.

Take `CC1(C)CCC[C@@]2(C)[C@H]1C[C@H](O)[C@H]1C[C@@H](O)[C@]3(C)CC[C@]12C3` [THYRSIFLORIN C]: in the data set with Human alphaherpesvirus 2 [1], the outcome was inactive. The CC100 in the data set on CHO was found to be 45 µg/mL; in data set [6], 60 µg/mL; in the data set on Vero, 30 µg/mL. For the same compound, the Ratio entry in the data set on Human alphaherpesvirus 2 [2] was “inactive”.

Consider `CC1(C)CCC[C@@]2(C)[C@H]1CC[C@H]1CC(=O)[C@]3(C)CC[C@]12C3`, for which, in data set [3], the CC50 – broadly, the concentration at which the toxic effect on the cells reaches its halfway point – came out at 16.7 µg/mL (≈ 57.9 µM). Further, in the data set on Human alphaherpesvirus 2 [1], the Activity was 14 µg/mL. This compound also yielded an IC50 with Human alphaherpesvirus 2 [4] of 21 µg/mL (≈ 72.9 µM). Further, the CC100 was 24 µg/mL with CHO, 24 µg/mL in [6] and 28 µg/mL in the data set on Vero. The Ratio in the data set with Human alphaherpesvirus 2 [2] stood at 100. Besides, the selectivity ratio in data set [5] came to 0.81.

On to `CC(=O)O[C@H]1C[C@H]2C(C)(C)CCC[C@]2(C)[C@@]23CC[C@](C)(C2)[C@H](OC(C)=O)C[C@H]13` [THYRSIFLORIN C DIACETATE], for which, in the data set with Human alphaherpesvirus 2 [1], the Activity stood at 10 µg/mL. Moreover, the CC100 in the data set with CHO turned out to be 40 µg/mL; in [6] it was 60 µg/mL; in the data set with Vero, 50 µg/mL. Also, the Ratio in the data set with Human alphaherpesvirus 2 [2] turned out to be 5.

Take `CC1(C)CCC[C@@]2(C)[C@H]1CCC1=CC(=O)[C@]3(C)CC[C@]12C3`: the 50% cytotoxic concentration (CC50) in [3] is 23.2 µg/mL (≈ 81 µM). In addition, the Activity with Human alphaherpesvirus 2 [1] was 20 µg/mL. Moreover, the concentration for half-maximal inhibition (IC50) in the data set with Human alphaherpesvirus 2 [4] worked out at 32.4 µg/mL (≈ 113 µM). For the same compound, the Ratio in the data set with Human alphaherpesvirus 2 [2] is 100. In data set [5], the selectivity ratio was found to be 0.72. The CC100 in the data set with Vero stood at 40 µg/mL.

In turn, `CC1(C)CCC[C@@]2(C)[C@H]1C[C@@H](O)[C@@H]1CC(=O)[C@]3(C)CC[C@]12C3` gave a CC50 in data set [3] of 27.8 µg/mL (≈ 91.3 µM). The Activity in the data set with Human alphaherpesvirus 2 [1] amounted to 30 µg/mL. In the data set with Human alphaherpesvirus 2 [4], this compound showed an IC50 of 42.1 µg/mL (≈ 138 µM). Besides, the Ratio in the data set on Human alphaherpesvirus 2 [2] stood at 100. The selectivity ratio in data set [5] came out at 0.66. This compound also returned a CC100 with Vero of 60 µg/mL.

With `CC1(C)CCC[C@@]2(C)[C@H]1C[C@H](O)[C@H]1CC(=O)[C@]3(C)CC[C@]12C3`, the Activity in the data set on Human alphaherpesvirus 2 [1] amounted to 10 µg/mL. The Ratio in the data set on Human alphaherpesvirus 2 [2] is given as 5. The compound also returned a CC100 in the data set with Vero of 48 µg/mL.

Turning to `COC(=O)CC(=O)O[C@@H]1C[C@@H]2[C@@H](OC(C)=O)C[C@H]3C(C)(C)CCC[C@]3(C)[C@]23CC[C@]1(C)C3` [METHYL THYRSIFLORIN B ACETATE], the Activity in the data set with Human alphaherpesvirus 2 [1] was 15 µg/mL. Moreover, the CC100 in the data set on CHO came out at 30 µg/mL; in data set [6], 60 µg/mL; in the data set on HEp-2, 30 µg/mL; with Vero it was 30 µg/mL; with HeLa it was 30 µg/mL. The Ratio with Human alphaherpesvirus 2 [2] came out at 5.

For the compound `CC(=O)O[C@H]1C[C@H]2C(C)(C)CCC[C@]2(C)[C@@]23CC[C@](C)(C2)[C@@H](O)C[C@H]13`, the Activity in the data set on Human alphaherpesvirus 2 [1] stood at 25 µg/mL. Further, the Ratio with Human alphaherpesvirus 2 [2] worked out at 10. Also, in the data set with Vero, the CC100 turned out to be 50 µg/mL.
